Data set [1] deals with arterial blood pressure. In words: Hypotensive activity on anaesthetized normotensive rats. The class given is in vivo, Sprague-Dawley male rats. To be noted: 10 mg/kg, jugular vein injection. The protocol:
Sprague-Dawley male rats (CR) were anaesthetized intraperitoneally with pentabarbital sodium (60 mg/kg) and a jugular vein was catheterized for the injection of the product, and a cartoid artery was catheterized for recording the arterial blood pressure. The test product was dissolved in 10% ethanol and then injected in a volume of 1 ml/kg.

The subject of data set [2] is disturbances of the cardiac rhythm. Put plainly: Anti-arrhythmic action in the rat (aconitine perfusion). The format is in vivo, male rats. The protocol:
Male rats weighing 300-350 g were anesthetized intra-peritoneally with 1.20 g/kg of urethane, then tracheotomized and submitted to artificial respiration (40-50 breaths of 3 ml/minute). Needles were implanted subcutaneously so as to record the electro-cardiogram of the rats on the DII derivation signal. The products under test were administered intravenously or orally.
Five minutes after the administration of the product intravenously or 1 hour after administration orally, the jugular vein of the rats was perfused with 10 μg/minute from 0.2 ml of a solution of aconitine, and the time of appearance of disturbances of the cardiac rhythm was noted, (10 μg of aconitine corresponding to a perfusion of 0.2 ml of solution). The results are expressed as a percentage of the extension of the time of appearance of the disturbances of the cardiac rhythm as compared with controls, and as a function of the dose of the product under test.

Data set [3] has as its target T1, beta1-adrenergic receptors (Rattus norvegicus, UniProt P18090).
T1 construct: 10 cortexes removed from the brains of male rats weighing 150 g on average were homogenized; from tissue; host or cells: rat brain cortex, crude membrane fraction
In words: Affinity for beta1-adrenergic receptors ([3H]dihydroalprenolol binding, brain cortex). To be noted: relative to propanolol, [3H]dihydroalprenolol 10^-9 M. The protocol:
(§1) The technique is modelled on that of Mohler et al [Science., Vol. 198, p. 849-851 (1977)]. 10 cortexes removed from the brains of male rats weighing 150 g on average were homogenized in 90 ml of 0.32M sucrose and after centrifugation of the homogenized mixture at 1,000 g for 20 minutes at 0° C., the supernatant was centrifuged at 30,000 g for 15 minutes at 0° to +4° C. The pellet was suspended in 120 ml of 50 mM Tris-HCl buffer pH 7.7, and centrifuged at 30,000 g for 15 minutes at 0° to +4° C. The new pellet was suspended in 480 ml of 50 mM Krebs Tris-HCl buffer pH 7.7. 2 ml of the suspension were then incubated for 10 minutes at 37° C. in the presence of [^3 H] dihydroalprenolol at a concentration of 10^-9 M, i) alone, ii) with increasing concentrations of the test product or iii) to determine the non-specific binding, with non-radioactive propanolol at a concentration of 10^-5 M. The incubated suspensions were filtered on Whatman GF/C, and the filters were washed three times with 5 ml of Krebs Tris-HCl buffer pH 7.7 at 0° C.
The radioactivity of the filters was measured by liquid scintillation. The affinity of the test product for beta1 -adrenergic receptors is given relative to propanolol as the reference product.
(§2) CD=concentration of propanolol inhibiting 50% of the specific binding of [^3 H]dihydroalprenolol.
CX=concentration of the test product inhibiting 50% of the specific binding of […].
The relative affinity is given by the relation [formula]

For data set [4], the target named is T2, beta2-adrenergic receptors (Rattus norvegicus, UniProt P10608).
T2 construct: The cerebella removed from the brains of male rats weighing 150 g on average were homogenized; from tissue; host or cells: rat cerebellum, crude membrane fraction
T2 sequence (P10608 whole entry): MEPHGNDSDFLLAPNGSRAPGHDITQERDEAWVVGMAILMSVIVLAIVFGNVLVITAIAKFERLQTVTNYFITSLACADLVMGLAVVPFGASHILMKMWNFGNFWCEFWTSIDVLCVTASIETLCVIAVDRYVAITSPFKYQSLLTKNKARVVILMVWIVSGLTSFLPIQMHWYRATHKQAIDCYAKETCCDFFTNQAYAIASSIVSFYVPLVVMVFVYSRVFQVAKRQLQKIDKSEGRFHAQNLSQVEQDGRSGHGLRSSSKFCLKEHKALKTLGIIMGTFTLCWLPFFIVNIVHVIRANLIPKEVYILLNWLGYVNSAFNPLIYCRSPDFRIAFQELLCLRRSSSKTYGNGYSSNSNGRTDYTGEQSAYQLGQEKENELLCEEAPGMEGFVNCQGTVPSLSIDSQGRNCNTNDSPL
In words: Affinity for beta2-adrenergic receptors ([3H]dihydroalprenolol binding, cerebella). The note with it: relative to propanolol, [3H]dihydroalprenolol 10^-9 M. The protocol:
as §1, with “The technique was modelled on” for “The technique is modelled on”, “et al [Science, Vol. 198,” for “et al [Science., Vol. 198,”, “849-851 (1977)]. The cerebella removed from” for “849-851 (1977)]. 10 cortexes removed from”, “ml of suspension were” for “ml of the suspension were”, “of [^3 H]dihydroalprenolol at a” for “of [^3 H] dihydroalprenolol at a”, “binding, with non-radio active propranolol at a” for “binding, with non-radioactive propanolol at a”
The radioactivity of the filters was measured by liquid scintillation. The affinity of the test product for beta2 -adrenergic receptors was given relative to propanolol as the reference product.
as §2
CX=concentration of the test product inhibiting 50% of the specific binding of [^3 H]dihydroalprenolol.
The relative affinity is given by the relation ARL=100 CD/CX

Data set [5] relates to Rat caudal arteries. In words: Test of calcium-antagonistic activity in vitro (K+ depolarized caudal arteries). To be noted: 100 mM K+, 37° C., read-out: IC50, inhibition of the contraction due to K+ ions. The format is cell-based. As to the method: Calcium chloride was added in a volume of 250 μl to obtain a series of increasing concentrations of Ca^2+ ions ranging from 0.1 to 3.0 mM. The contractions of the arteries were recorded and a control series were thus established. The operation was repeated with the series of CA^2+ ions every 15 minutes and the preparation was washed four times after each series. When a stable response was obtained, the operation with the series of CA^2+ ions was performed in the presence of different concentrations of the test product, until a stable response was obtained.
The contractions of the arteries depend on the entry of Ca^2+ ions into the cells of the smooth muscles, and were caused by the depolarization of the smooth muscle by the K^+ ions and by the action of the noradrenaline released at presynaptic level. By starting the operation again with arteries denervated by the action of 6-OH-dopamine, the specific action due to noradrenaline was eliminated.

Data set [6] deals with mice. Put plainly: Study of the acute toxicity. The class given is in vivo. To be noted: oral. As to the method: The lethal doses LD50 of the different compounds tested were evaluated after administration orally to mice. The maximum dose not causing any mortality in 8 days was called the LD0 and the following results were obtained.
Setting [7] is: iv, read-out: Percentage extension of the time of appearance of disturbances of the cardiac rhythm.
Where [8] appears, read: read-out: Percentage of prolongation in the time.

Read-outs that look alike come from different tables or passages of the source.

What is called IC50 is the concentration that gives 50% inhibition.

T1 sequence (P18090 whole entry): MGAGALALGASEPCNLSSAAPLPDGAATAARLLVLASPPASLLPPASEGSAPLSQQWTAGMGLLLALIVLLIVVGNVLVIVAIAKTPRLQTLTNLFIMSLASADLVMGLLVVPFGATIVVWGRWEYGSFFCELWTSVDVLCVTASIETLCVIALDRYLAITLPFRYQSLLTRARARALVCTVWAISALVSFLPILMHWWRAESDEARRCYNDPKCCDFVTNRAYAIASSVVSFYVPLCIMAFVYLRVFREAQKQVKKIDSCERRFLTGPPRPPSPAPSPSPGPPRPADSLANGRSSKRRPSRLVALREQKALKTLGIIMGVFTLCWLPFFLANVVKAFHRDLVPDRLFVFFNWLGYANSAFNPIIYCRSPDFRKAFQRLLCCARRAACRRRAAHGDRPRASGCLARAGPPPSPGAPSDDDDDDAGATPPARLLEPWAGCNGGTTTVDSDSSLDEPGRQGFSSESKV

As for `CC(C)(C)NCC(O)COc1ccccc1C(=O)Nc1cccc2[nH]ccc12` (centres unmarked) [Example 17, 2-[3-[(1,1-dimethylethyl)amino]-2-hydroxypropoxy]-N-(1H-indol-4-yl) benzamide benzoate], the “variation of the arterial blood pressure, 5 mins after administration” value in data set [1] (5 min) is reported as -55 percentage. The “variation of the arterial blood pressure, 30 min. after administration” value in data set [1] (30 min) is on record as -13 percentage.

Take `CCC(C)(C)NCC(O)COc1ccccc1C(=O)Nc1cccc2[nH]ccc12` (centres unmarked) [Example 28, 2-[3-[(1,1-dimethylpropyl)amino]-2-hydroxypropoxy]-N-(1H-indol-4-yl) benzamide]: in data set [2] (setting [7]), the change in vivo at 1 mg/kg was determined as 14%, the change in vivo at 2.5 mg/kg is 54% and the change in vivo at 5 mg/kg was 95%. The “ARL (relative affinity for beta1-adrenergic receptors)” value in data set [3] is recorded as 28%. The “ARL (relative affinity for beta2-adrenergic receptors, 100 CD/CX)” value in data set [4] is on record as 15%. For the same compound, in data set [5], the IC50 was 2.5 µM. Further, the “LD0 (maximum dose not causing any mortality in 8 days)” value in data set [6] is recorded as more than 400 mg/kg.

As for `O=C(Nc1cccc2[nH]ccc12)c1ccccc1OCCCNCC1CCCCC1` [Example 32, 2-[3-[Cyclohexylmethylamino]-propoxy)-N-(1H-indol-4-yl)benzamide], in data set [2] (setting [7]), the change in vivo at 1 mg/kg was 43%, the change in vivo at 2.5 mg/kg amounted to 71%, the change in vivo at 5 mg/kg is 97% and the change in vivo at 6.5 mg/kg came out at 28%. Besides, the IC50 in data set [5] was found to be 3.9 µM. Moreover, in data set [6], the “LD0 (maximum dose not causing any mortality in 8 days)” value is 100 mg/kg.

With `CC(C)(C)NCCCCOc1ccccc1C(=O)Nc1cccc2[nH]ccc12` [Example 33, 2[4-[1,1-Dimethylethylamino]butoxy]-N-(1H-indol-4-yl)benzamide], in data set [2] (setting [8]), the change in vivo at 5 mg/kg stood at 54% and the change in vivo at 10 mg/kg worked out at 99%. In addition, in data set [5], the IC50 was 6.3 µM. For the same compound, the “LD0 (maximum dose not causing any mortality in 8 days)” value in data set [6] was more than 400 mg/kg.

As to `Cn1ccc2c(NC(=O)c3ccccc3OCC(O)CNC(C)(C)C)cccc21` (centres unmarked) [Example 34, 2-[3-[1,1-Dimethylethylamino]-2-hydroxypropoxy]-N-(1-methyl-1H-indol-4-yl) benzamide], in data set [2] (setting [8]), the change in vivo at 2.5 mg/kg is 12%, the change in vivo at 5 mg/kg turned out to be 43% and the change in vivo at 10 mg/kg is 125%. In data set [3], the “ARL (relative affinity for beta1-adrenergic receptors)” value is reported as 44%. Further, in data set [4], the “ARL (relative affinity for beta2-adrenergic receptors, 100 CD/CX)” value amounted to 81%. For the same compound, the IC50 in data set [5] is 8.8 µM. In addition, the “LD0 (maximum dose not causing any mortality in 8 days)” value in data set [6] was 80 mg/kg.

For the compound `O=C(Nc1cccc2[nH]ccc12)c1ccccc1OCC(O)CN1CCN(C(c2ccccc2)c2ccccc2)CC1` (centres unmarked) [Example 46, 2-[2-Hydroxy-3-[4-(diphenylmethyl)-1-piperazinyl]propoxy]-N-(1H-indol-4-yl)benzamide], in data set [2] (setting [8]), the change in vivo at 2.5 mg/kg amounted to 67%, the change in vivo at 5 mg/kg is 127% and the change in vivo at 10 mg/kg is 203%. Moreover, the IC50 in data set [5] was 0.25 µM. Also, in data set [6], the “LD0 (maximum dose not causing any mortality in 8 days)” value stood at 400 mg/kg.

On to `CCC(C)(C)NCC(O)COc1ccccc1C(=O)Nc1cccc2[nH]ccc12.O=C(O)c1ccccc1` (centres unmarked) [Example 48, 2-[3-[(1,1-Dimethylpropyl)amino]-2-hydroxypropoxy]-N-(1H-indol-4-yl)benzamide benzoate], for which, in data set [2] (setting [8]), the change in vivo at 2.5 mg/kg is 53% and the change in vivo at 5 mg/kg turned out to be 79%. In addition, the “ARL (relative affinity for beta1-adrenergic receptors)” value in data set [3] amounted to 20%. The “ARL (relative affinity for beta2-adrenergic receptors, 100 CD/CX)” value in data set [4] was determined as 27%.

The values are drawn from patent US5084455A, “Novel indole carboxamides” (Roussel Uclaf, priority 1985, dated 1992).
